In brackets after ≈: the same amount, converted by molar mass.
Tests used:
S. aureus IFO 13276 = assay: Antibacterial test (minimum inhibitory concentration), method designated by Japan Society of Chemotherapy; type: cell-based, Staphylococcus aureus; details: for MIC: Staphylococcus aureus, IFO13276, S. aureus IFO 13276, Gram's stain +, 10^6 cells/ml
Description: (§1) Antibacterial test was carried out according to the method designated by Japan Society of Chemotherapy in Chemotherapy, 29 (1): 76 (1981), the content of which is herein incorporated by reference. Each of the compounds obtained in Examples 2, 4 and 7 is tested. As a control drug, 1-ethyl-6,8-difluoro-1,4-dihydro-4-oxo-7-(1-piperazinyl)-3-quinolinecarboxylic acid was used, which is represented by formula IV when R1 is hydrogen, R3 is ethyl, R4 and R5 are hydrogen, and Z is piperazinyl.
(§2) The results are shown in Table 1 in terms of minimum inhibitory concentration (MIC).

P. aeruginosa IFO 13275 = assay: as above; type: cell-based; details: Pseudomonas aeruginosa, IFO13275; P. aeruginosa IFO 13275, Gram's stain -, 10^6 cells/ml
Description: as §1, §2

MIC (S. aureus IFO 13276) [mg/L]	MIC (P. aeruginosa IFO 13275) [mg/L]	SMILES	antibacterial activity compared with the control drug (in words) (S. aureus IFO 13276; against S. aureus, versus control drug)
0.2 (≈ 0.406 µM)	< 0.025	CCn1cc(C(=O)O)c(=O)c2cc(F)c(N3CCN(S(=O)(=O)c4ccc(N)cc4)CC3)c(F)c21 [Example 2, 1-Ethyl-6,8-difluoro-1,4-dihydro-4-oxo-7-[4-(4-aminobenzenesulfonyl)-1-piperazinyl]-3-quinolinecarboxylic acid]	more potent antibacterial activity than the control drug
0.78 (≈ 1.59 µM)	< 0.025	CCn1cc(C(=O)O)c(=O)c2cc(F)c(N3CCN(S(=O)(=O)c4ccc(C)cc4)CC3)c(F)c21 [Example 4, 1-Ethyl-6,8-difluoro-1,4-dihydro-4-oxo-7-[4-(4-methylbenzenesulfonyl)-1-piperazinyl]-3-quinolinecarboxylic acid]	
0.78 (≈ 1.57 µM)	< 0.025	CCn1cc(C(=O)O)c(=O)c2cc(F)c(N3CCN(S(=O)(=O)c4ccc(F)cc4)CC3)c(F)c21 [Example 7, 1-Ethyl-6,8-difluoro-1,4-dihydro-4-oxo-7-[4-(4-fluorobenzenesulfonyl)-1-piperazinyl]-3-quinolinecarboxylic acid]	

SMILES	MIC (S. aureus IFO 13276) [mg/L]	MIC (P. aeruginosa IFO 13275) [mg/L]	antibacterial activity compared with the control drug (in words) (S. aureus IFO 13276; against S. aureus, versus control drug)
CCn1cc(C(=O)O)c(=O)c2cc(F)c(N3CCNCC3)c(F)c21 [Control drug, 1-ethyl-6,8-difluoro-1,4-dihydro-4-oxo-7-(1-piperazinyl)-3-quinolinecarboxylic acid, reference compound]	0.39 (≈ 1.16 µM)	< 0.025	
